{
  "source": "patent US8822691B2",
  "about": "“Pesticidal carboxamides” (Bayer CropScience AG, priority 2009, dated 2014)",
  "data": [
    {"test_system": "Spodoptera litura", "assay": "Test against tobacco cutworm (Spodoptera litura) larvae, leaf dip", "assay_type": "in vivo", "conditions": "active compound concentration of 100 ppm; third instar larvae on sweet potato leaves; after 7 days", "protocol": "(§1) Unless not mentioned otherwise, the test solutions were prepared as follows:\n(§2) Containing as solvent: Dimethylformamide, 3 parts by weight; and as emulsifier: Polyoxyethylene alkyl phenyl ether, 1 part by weight\n(§3) To prepare the test solution, 1 part by weight of an active compound is mixed with the above-mentioned amount of solvent containing the above-mentioned amount of emulsifier, and the mixture is diluted with water to the desired concentration.\n(§4) Leaves of sweet potato were immersed in the test solution at the appropriate concentration, and the leaves were dried in air. The leaves were then placed in a petri dish having a diameter of 9 cm, and ten Spodoptera litura at third instar larvae were released therein. The petri dishes were placed in a temperature-controlled chamber at 25° C. After 2 days and 4 days more sweet potato leaves were added. After 7 days, the number of dead larvae was counted to calculate the insecticidal activity. An insecticidal activity of 100% means that all larvae were killed, whereas an insecticidal activity of 0% means that no larva was killed. In the current test, the results of two petri dishes for each treatment were averaged.", "units": {"insecticidal activity": "%"}, "values": [
      {"smiles": "N#Cc1ccc2cc(C(=O)Nc3c(Br)cc(C(F)(C(F)(F)F)C(F)(F)C(F)(F)F)cc3SC(F)(F)F)ccc2n1", "note": "(stereo not shown) [2-185]", "insecticidal activity": 100},
      {"smiles": "Cc1cc(C(F)(C(F)(F)F)C(F)(F)F)cc(C)c1NC(=O)c1ccc2c(ccc(C#N)[n+]2[O-])c1", "note": "[Compound No. 2-21]", "insecticidal activity": 100},
      {"smiles": "CCCc1cc(C(F)(C(F)(F)F)C(F)(F)C(F)(F)F)cc(I)c1NC(=O)c1ccc2c(ccc[n+]2[O-])c1", "note": "(stereo not shown) [2-103]", "insecticidal activity": 100},
      {"smiles": "O=C(Nc1c(I)cc(C(F)(C(F)(F)F)C(F)(F)Br)cc1I)c1ccc2ncccc2c1", "note": "(stereo not shown) [2-198]", "insecticidal activity": 100},
      {"smiles": "N#Cc1ccc2cc(C(=O)Nc3c(I)cc(C(F)(C(F)(F)F)C(F)(F)F)cc3SC(F)(F)F)ccc2n1", "note": "[2-161]", "insecticidal activity": 100},
      {"smiles": "CCCc1cc(C(F)(C(F)(F)F)C(F)(F)C(F)(F)F)cc(Br)c1NC(=O)c1ccc2ncccc2c1", "note": "(stereo not shown) [2-162]", "insecticidal activity": 100},
      {"smiles": "N#Cc1ccc2cc(C(=O)Nc3c(Br)cc(SC(F)(F)F)cc3Br)ccc2n1", "note": "[2-140]", "insecticidal activity": 100},
      {"smiles": "CCc1cc(C(F)(C(F)(F)F)C(F)(F)C(F)(F)F)cc(C)c1NC(=O)c1ccc(N=c2ssnc2Cl)c(Br)c1", "note": "(stereo not shown) [5-4]", "insecticidal activity": 100},
      {"smiles": "CCc1cc(C2(F)C(F)(F)C(F)(F)C(F)(F)C(F)(F)C2(F)F)cc(C)c1NC(=O)c1ccc2ncccc2c1", "note": "[2-128]", "insecticidal activity": 100},
      {"smiles": "CCc1cc(C2(F)C(F)(F)C(F)(F)C(F)(F)C(F)(F)C2(F)F)cc(C)c1NC(=O)c1ccc2c(ccc[n+]2[O-])c1", "note": "[2-129]", "insecticidal activity": 100},
      {"smiles": "CCCc1cc(C(F)(C(F)(F)F)C(F)(F)C(F)(F)F)cc(I)c1NC(=O)c1ccc2ncccc2c1", "note": "(stereo not shown) [2-102]", "insecticidal activity": 100},
      {"smiles": "O=C(Nc1c(I)cc(C(F)(C(F)(F)F)C(F)(F)C(F)(F)F)cc1SC(F)(F)F)c1ccc2ncccc2c1", "note": "(stereo not shown) [2-186]", "insecticidal activity": 100},
      {"smiles": "N#Cc1ccc2cc(C(=O)Nc3c(Br)cc(C(F)(C(F)(F)F)C(F)(F)C(F)(F)F)cc3Br)ccc2[n+]1[O-]", "note": "(stereo not shown) [2-270]", "insecticidal activity": 100},
      {"smiles": "O=C(Nc1c(I)cc(C(F)(C(F)(F)F)C(F)(F)C(F)(F)F)cc1I)c1ccc2ncccc2c1", "note": "(stereo not shown) [2-111]", "insecticidal activity": 100}
    ]},
    {"test_system": "Spodoptera litura", "assay": "Test against tobacco cutworm (Spodoptera litura) larvae, leaf dip", "assay_type": "in vivo", "conditions": "foliar, 168 h; active compound concentration of 100 ppm; third instar larvae on sweet potato leaves; after 7 days; read-out: insecticidal activity", "protocol": "as §1, §2, §3, §4", "units": {"pest or weed control at 100 ppm": "%"}, "values": [
      {"smiles": "CCc1cc(C(F)(C(F)(F)F)C(F)(F)F)cc(C)c1NC(=O)c1ccc2cc(C#N)ccc2c1", "note": "[Compound No. 1-4, 6-cyano-N-[2-ethyl-4-(1,1,1,2,3,3,3-heptafluoropropan-2-yl)-6-methylphenyl]-2-naphthamide]", "pest or weed control at 100 ppm": 100}
    ]},
    {"test_system": "Aulacophora femoralis", "assay": "Test against cucurbit leaf beetle (Aulacophora femoralis), leaf dip", "assay_type": "in vivo", "conditions": "Aulacophora, foliar, 168 h; active compound concentration of 500 ppm; second instar larvae on cucumber leaves; after 7 days; read-out: insecticidal activity", "protocol": "as §1, §2, §3\n(§5) Leaves of cucumber were immersed in the test solution at the appropriate concentration, and the leaves were dried in air. The leaves were then put in a plastic cup containing sterilized black soil and five Aulacophora femoralis at second instar larvae were released in the cup. The cups were placed in a temperature-controlled chamber at 25° C. After 7 days, the number of dead larvae was counted, and thus the insecticidal activity was calculated. An insecticidal activity of 100% means that all larvae were killed, whereas an insecticidal activity of 0% means that no larva was killed.", "units": {"pest or weed control at 500 ppm": "%"}, "values": [
      {"smiles": "O=C(Nc1c(Cl)cc(C(F)(C(F)(F)F)C(F)(F)F)cc1OC(F)F)c1ccc2ncccc2c1", "note": "[Compound No. 2-229, N-[2-chloro-(1,1,1,2,3,3,3-heptafluoropropan-2-yl)-6-(difluoromethoxy)phenyl]quinoline-6-carboxamide]", "pest or weed control at 500 ppm": 100}
    ]},
    {"test_system": "Aulacophora femoralis", "assay": "Test against cucurbit leaf beetle (Aulacophora femoralis), leaf dip", "assay_type": "in vivo", "conditions": "active compound concentration of 500 ppm; second instar larvae on cucumber leaves; after 7 days", "protocol": "as §1, §2, §3, §5", "units": {"insecticidal activity": "%"}, "values": [
      {"smiles": "N#Cc1ccc2cc(C(=O)Nc3c(Br)cc(C(F)(C(F)(F)F)C(F)(F)C(F)(F)F)cc3SC(F)(F)F)ccc2n1", "note": "(stereo not shown) [2-185]", "insecticidal activity": 100},
      {"smiles": "Cc1cc(C(F)(C(F)(F)F)C(F)(F)F)cc(C)c1NC(=O)c1ccc2c(ccc(C#N)[n+]2[O-])c1", "note": "[Compound No. 2-21]", "insecticidal activity": 100},
      {"smiles": "Cc1cc(C(F)(C(F)(F)F)C(F)(F)F)cc(C)c1NC(=O)c1ccc2nc(Br)ccc2c1", "note": "[2-18]", "insecticidal activity": 100},
      {"smiles": "CCCc1cc(C(F)(C(F)(F)F)C(F)(F)C(F)(F)F)cc(Br)c1NC(=O)c1ccc2ncccc2c1", "note": "(stereo not shown) [2-162]", "insecticidal activity": 100},
      {"smiles": "N#Cc1ccc2cc(C(=O)Nc3c(Br)cc(SC(F)(F)F)cc3Br)ccc2n1", "note": "[2-140]", "insecticidal activity": 100},
      {"smiles": "CC(C)c1cc(C(F)(C(F)(F)F)C(F)(F)F)cc(C(C)C)c1NC(=O)c1ccc2c(ccc[n+]2[O-])c1", "note": "[2-57]", "insecticidal activity": 100},
      {"smiles": "Cc1cc(C(F)(C(F)(F)F)C(F)(F)F)cc(C(C)C)c1NC(=O)c1ccc2c(ccc[n+]2[O-])c1", "note": "[2-36]", "insecticidal activity": 100},
      {"smiles": "O=C(Nc1c(I)cc(C(F)(C(F)(F)F)C(F)(F)C(F)(F)F)cc1I)c1ccc2c(ccc[n+]2[O-])c1", "note": "(stereo not shown) [2-112]", "insecticidal activity": 100},
      {"smiles": "CCc1cc(C(F)(C(F)(F)F)C(F)(F)C(F)(F)F)cc(C)c1NC(=O)c1ccc2c(ccc[n+]2[O-])c1", "note": "(stereo not shown) [2-89]", "insecticidal activity": 100},
      {"smiles": "N#Cc1ccc2cc(C(=O)Nc3c(Br)cc(OC(F)(F)F)cc3Br)ccc2n1", "note": "[2-139]", "insecticidal activity": 100},
      {"smiles": "CCc1cc(C(F)(C(F)(F)F)C(F)(F)Br)cc(C)c1NC(=O)c1ccc2c(ccc[n+]2[O-])c1", "note": "(stereo not shown) [2-193]", "insecticidal activity": 100},
      {"smiles": "O=C(Nc1c(Cl)cc(C(F)(C(F)(F)F)C(F)(F)F)cc1Cl)c1ccc2ncccc2c1", "note": "[2-59]", "insecticidal activity": 100}
    ]}
  ]
}
